# Measured values from US4939137A, “Ring-fused thienopyrimidinedione derivatives” (Ortho Pharmaceutical Corporation, priority 1989, dated 1990).
# Columns and labels:
# [1] = target: alpha-1 adrenergic receptor; test: Brain Alpha-1 Radioreceptor Assay (3H-prazosin); settings: guinea pig brain membranes, 30 minutes, 30° C., read-out: RECEPTOR BINDING ALPHA-1 (IC50)
# Description: Membrane fragments were prepared from the brains of mature female guinea pigs after removal of the corpus striata. The alpha-1 adrenergic receptor sites were labeled with ^3 H-prazosin. Membrane fragments, ^3 H-prazosin and an unlabeled test compound were incubated for 30 minutes at 30° C. Compound bound to the receptor site was separated from the remaining unbound radioligand by vacuum filtration. Specific binding was determined by the difference between total counts bound and counts bound in the presence of 10-^5 M phentolamine.
# 5HT1A receptor = target: T1, 5HT1A receptor (Rattus norvegicus, UniProt P19327); test: Brain Serotonin 5HT1A Radioreceptor Assay (3H-80H-DPAT); type: binding; settings: for IC50: rat frontal cortex membranes, 10 minutes, 37° C., read-out: RECEPTOR BINDING 5HT-1A (IC50); for inhibition at 1 µM: @ 10^-6, rat frontal cortex membranes, read-out: RECEPTOR BINDING 5HT-1A, % @ 10^-6
# T1 construct: Membrane fragments were prepared from the frontal cortex dissected from brains obtained from female rats; from tissue; host or cells: frontal cortex, female rats
# T1 sequence (P19327 1-422): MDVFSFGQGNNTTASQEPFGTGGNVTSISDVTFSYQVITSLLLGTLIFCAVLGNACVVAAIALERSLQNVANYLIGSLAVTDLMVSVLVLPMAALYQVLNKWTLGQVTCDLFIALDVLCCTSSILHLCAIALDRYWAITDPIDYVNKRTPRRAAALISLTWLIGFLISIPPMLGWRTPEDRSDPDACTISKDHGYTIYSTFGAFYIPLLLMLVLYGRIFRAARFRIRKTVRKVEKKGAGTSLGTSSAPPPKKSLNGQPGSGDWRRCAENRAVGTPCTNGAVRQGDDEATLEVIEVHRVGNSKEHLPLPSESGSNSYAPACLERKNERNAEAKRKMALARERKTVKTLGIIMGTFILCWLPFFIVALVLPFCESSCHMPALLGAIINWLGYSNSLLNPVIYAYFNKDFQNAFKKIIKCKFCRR
# Description: Membrane fragments were prepared from the frontal cortex dissected from brains obtained from female rats (~150 g). The 5HT1A sites were labeled with ^3 H-80H-dipropylaminotetralin (^3 H-80H-DPAT). Membrane fragments, ^3 H-80H-DPAT and an unlabeled test compound were incubated for 10 minutes at 37° C. The tubes were then placed in an ice bath for an additional 10 minutes. Compound bound to the receptor site was separated from the remaining unbound compound by vacuum filtration.
# The ability of a nonlabeled compound to compete with ^3 H-80H-DPAT for binding sites was a measure of the compound's affinity for the 5HT1A receptor. Specific binding was determined by the difference between total counts bound and counts bound in the presence of 10^-5 M serotonin.
# Data are presented at the IC50, the concentration of nonlabeled compound required to displace 50% of the ^3 H-80H-DPAT specifically bound to 5HT1A binding sites.
# 5HT2 receptor = target: T2, 5HT2 receptor (Rattus norvegicus, UniProt P14842); test: Brain Serotonin 5HT2 Radioreceptor Assay (3H-ketanserin); type: binding; settings: for IC50: rat frontal cortex membranes, 15 minutes, 37° C., read-out: RECEPTOR BINDING 5HT-2 (IC50); for inhibition at 1 µM: 0.25 h, @ 10^-6, rat frontal cortex membranes, read-out: RECEPTOR BINDING 5HT-2, % @ 10^-6
# T2 construct: Membrane fragments were prepared from the frontal cortex dissected from brains obtained from female rats; from tissue; host or cells: frontal cortex, female rats
# T2 sequence (P14842 whole entry, the tested form may be a part): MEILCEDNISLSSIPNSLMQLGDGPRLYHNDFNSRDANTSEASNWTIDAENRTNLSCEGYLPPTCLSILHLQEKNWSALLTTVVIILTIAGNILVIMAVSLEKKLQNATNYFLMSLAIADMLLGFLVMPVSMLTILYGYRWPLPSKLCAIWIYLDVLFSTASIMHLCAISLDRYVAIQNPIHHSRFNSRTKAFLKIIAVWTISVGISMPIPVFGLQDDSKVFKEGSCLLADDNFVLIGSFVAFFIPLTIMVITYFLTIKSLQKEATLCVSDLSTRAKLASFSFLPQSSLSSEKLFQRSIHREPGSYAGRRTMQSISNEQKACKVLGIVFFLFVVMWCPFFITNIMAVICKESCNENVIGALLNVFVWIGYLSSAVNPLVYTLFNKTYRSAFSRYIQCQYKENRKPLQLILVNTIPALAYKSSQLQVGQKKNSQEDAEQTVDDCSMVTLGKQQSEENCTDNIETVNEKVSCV
# Description: Membrane fragments were prepared from the frontal cortex dissected from brains obtained from female rats (~150 g). The 5HT2 sites were labeled with ^3 H-ketanserin. Membrane fragments, ^3 H-ketanserin and an unlabeled test compound were incubated for 15 minutes at 37° C. Compound bound to the receptor site was separated from the remaining unbound compound by vacuum filtration.
# The ability of a nonlabeled compound to compete with ^3 H-ketanserin for binding sites was a measure of the compound's affinity for the 5HT2 receptor. Specific binding was determined by the difference between total counts bound and counts bound in the presence of 10^-6 M methysergide.
# Data are presented as the IC50, the concentration of nonlabeled compound required to displace 50% of the ^3 H-ketanserin specifically bound to 5HT2 binding sites.
Structure (SMILES),IC50 [1],IC50 (5HT1A receptor),IC50 (5HT2 receptor),inhibition at 1 µM (5HT2 receptor),inhibition at 1 µM (5HT1A receptor),"inhibition at 10 µM (5HT1A receptor; @ 10^-5, rat frontal cortex membranes, read-out: RECEPTOR BINDING 5HT-1A, % @ 10^-5)"
"O=C1CCn2c(=O)n(CCN3CCN(c4cccc(C(F)(F)F)c4)CC3)c(=O)c3csc1c32 [Example 6, 4-[2-[4-(3-Trifluoromethylphenyl)piperazin-1-yl]ethyl]-3,4,5,7,8,9-hexahydrothieno[4,3,2-de]-pyrido[1,2-c]pyrimidine-3,5,9-trione]",1 µM,0.028 µM,0.7 µM,–,–,–
"O=C1CCn2c(=O)n(CCN3CCN(c4cccc(Cl)c4)CC3)c(=O)c3csc1c32 [Example 7, 4-[2-[4-(3-Chlorophenyl)piperazin-1-yl]ethyl]-3,4,5,7,8,9-hexahydrothieno[4,3,2-de]pyrido[1,2-c]pyrimidine-3,5,9-trione]",0.18 µM,0.005 µM,0.35 µM,–,–,–
"COc1ccccc1N1CCN(CCCn2c(=O)c3csc4c3n(c2=O)CCC4=O)CC1 [Example 10, 3,4,5,7,8,9-Hexahydro-4-[3-[4-(2-methoxyphenyl)piperazin-1-yl]propyl]thieno[4,3,2-de]pyrido[1,2-c]pyrimidine-3,5,9-trione]",0.021 µM,0.005 µM,0.3 µM,–,–,–
"COc1ccccc1N1CCN(CCCCn2c(=O)c3csc4c3n(c2=O)CCC4=O)CC1 [Example 11, 3,4,5,7,8,9-Hexahydro-4-[4-[4-(2-methoxyphenyl)-piperazin-1-yl]butyl]thieno[4,3,2-de]pyrido[1,2-c]pyrimidine-3,5,9-trione]",0.0005 µM,0.0009 µM,–,33%,–,–
"COc1ccccc1N1CCN(CCCCCn2c(=O)c3csc4c3n(c2=O)CCC4=O)CC1 [Example 12, 3,4,5,7,8,9-Hexahydro-4-[5-[4-(2-methoxyphenyl)piperazin-1-yl]pentyl]thieno[4,3,2-de]pyrido[1,2-c]pyrimidine-3,5,9-trione]",–,0.045 µM,1.5 µM,–,–,–
"COc1ccccc1N1CCN(CCn2c(=O)c3csc4c3n(c2=O)CCCCC4=O)CC1 [Example 16, 4,7,8,9,10,11-Hexahydro-4-[2-[4-(2-methoxyphenyl)piperazin-1-yl]ethyl]thieno[4,3,2-de]pyrimido[3,4-a]azocine-3,5,11-trione]",0.035 µM,0.16 µM,2 µM,–,–,–
"O=C1CCn2c(=O)n(CCN3CC=C(c4ccccc4)CC3)c(=O)c3csc1c32 [Example 17, 3,4,5,7,8,9-Hexahydro-4-[2-(4-phenyl-1,2,3,6-tetrahydropyridin-1-yl)ethyl]thieno[4,3,2-de]pyrido[1,2-c]pyrimidine-3,5,9-trione]",0.0076 µM,–,–,21%,1.8%,–
"O=C1CCn2c(=O)n(CCCCN3CCN(c4cccc(C(F)(F)F)c4)CC3)c(=O)c3csc1c32 [Example 18, 4-[4-[4-(3-Trifluoromethylphenyl)piperazin-1-yl]butyl]-3,4,5,7,8,9-hexahydrothieno[4,3,2-de]-pyrido[1,2-c]pyrimidine-3,5,9-trione]",4.5 µM,–,–,47%,–,–
"O=C1CCn2c(=O)n(CCN3CCC(C(=O)c4ccc(F)cc4)CC3)c(=O)c3csc1c32 [Example 19, 4-[2-[4-(4-Fluorobenzoyl)piperidin-1-yl]ethyl]-3,4,5,7,8,9-hexahydrothieno[4,3,2-de]pyrido[1,2-c]pyrimidine-3,5,9-trione]",1 µM,–,0.001 µM,–,35%,–
"O=C1CCn2c(=O)n(CCN3CCC(=C(c4ccc(F)cc4)c4ccc(F)cc4)CC3)c(=O)c3csc1c32 [Example 20, 4-[2-[4-[Bis(4-fluorophenyl)methylene]piperidin-1-yl]ethyl]-3,4,5,7,8,9-hexahydrothieno[4,3,2-de]pyrimidine-3,5,9-trione]",22 µM,–,0.18 µM,–,47%,–
"COc1ccccc1N1CCN(CCn2c(=O)c3csc4c3n(c2=O)CCCC4O)CC1 (stereo not shown) [Example 22, 10-Hydroxy-4,7,8,9-tetrahydro-4-[2-[4-(2-methoxyphenyl)piperazin-1-yl]ethyl]thieno[4,3,2-de]pyrimido[3,4-a]azepine-3,5-dione]",0.0004 µM,0.062 µM,0.27 µM,–,–,–
"CON=C1CCCn2c(=O)n(CCN3CCN(c4ccccc4OC)CC3)c(=O)c3csc1c32 [Example 27, 4,7,8,9-Tetrahydro-10-methoxyimino-4-[2-[4-(2-methoxyphenyl)piperazin-1-yl]ethyl]thieno[4,3,2-de]pyrimido[3,4-a]azepine-3,5-dione]",0.00014 µM,0.07 µM,–,11%,–,–
"CON=C1CCn2c(=O)n(CCN3CCN(c4ccccc4OC)CC3)c(=O)c3c(C)sc1c32 [Example 28, 3,4,5,7,8,9-Hexahydro-9-methoxyimino-4-[2-[4-(2-methoxyphenyl)piperazin-1-yl]ethyl]-2-methyl-thieno[4,3,2-de]pyrido[1,2-c]pyrimidine-3,5-dione]",< 0.001 µM,0.02 µM,0.15 µM,–,–,–
"CON=C1CCn2c(=O)n(CCCN3CCN(c4ccccc4OC)CC3)c(=O)c3csc1c32 [Example 29, 3,4,5,7,8,9-Hexahydro-9-methoxyimino-4-[3-[4-(2-methoxyphenyl)piperazin-1-yl]propyl]thieno-[4,3,2-de]pyrido[1,2-c]pyrimidine-3,5-dione]",0.026 µM,–,–,34.3%,5.2%,–
"COc1ccccc1N1CCN(CCn2c(=O)c3csc4c3n(c2=O)CCC4NC(C)=O)CC1 (stereo not shown) [Example 39, 9-Acetylamino-3,4,5,7,8,9-hexahydro-4-[2-[4-(2-methoxyphenyl)piperazin-1-yl]ethyl]thieno[4,3,2-de]pyrido[1,2-c]pyrimidine-3,5-dione]",0.00035 µM,0.58 µM,0.75 µM,–,–,–
"COc1ccccc1N1CCN(CCn2c(=O)c3csc4c3n(c2=O)CCC4NC(=O)c2ccccc2)CC1 (stereo not shown) [Example 40, 9-Benzoylamino-3,4,5,7,8,9-hexahydro-4-[2-[4-(2-methoxyphenyl)piperazin-1-yl]ethyl]thieno[4,3,2-de]pyrido[1,2-c]pyrimidine-3,5-dione]",0.003 µM,–,2.5 µM,–,–,45%
"CON=C1CCn2c(=O)n(CCN3CCN(c4cccc(Cl)c4)CC3)c(=O)c3csc1c32 [Example 41, 4-[2-[4-(3-Chlorophenyl)piperazin-1-yl]ethyl]-3,4,5,7,8,9-hexahydro-9-methoxyiminothieno[4,3,2-de]pyrido[1,2-c]pyrimidine-3,5-dione]",40 µM,1 µM,1 µM,–,–,–
"O=C1CCn2c(=O)n(CCCCN3CCC(C(=O)c4ccc(F)cc4)CC3)c(=O)c3csc1c32 [Example 42, 4-[4-[4-(4-Fluorobenzoyl)piperidin-1-yl]butyl]-3,4,5,7,8,9-hexahydrothieno[4,3,2-de]pyrido[1,2-c]pyrimidine-3,5,9-trione]",0.54 µM,0.4 µM,0.63 µM,–,–,–
O=C1CCn2c(=O)n(CCCCCN3CCN(c4cccc(C(F)(F)F)c4)CC3)c(=O)c3csc1c32 [Example 43],–,0.052 µM,0.43 µM,–,–,–
"CON=C1CCn2c(=O)n(CCCCCN3CCN(c4cccc(C(F)(F)F)c4)CC3)c(=O)c3csc1c32 [Example 44, 4-[5-[4-(3-Trifluoromethylphenyl)piperazin-1-yl]-pentyl]-3,4,5,7,8,9-hexahydro-9-methoxyiminothieno[4,3,2-de]pyrido[1,2-c]pyrimidine-3,5-dione]",–,0.2 µM,0.13 µM,–,–,–
"O=C1CCn2c(=O)n(CCCCCN3CCC(=C(c4ccc(F)cc4)c4ccc(F)cc4)CC3)c(=O)c3csc1c32 [Example 45, 4-[5-[4-[Bis(4-fluorophenyl)methylene]piperadin-1-yl]pentyl]-3,4,5,7,8,9-hexahydrothieno[4,3,2-de]pyrimidine-3,5,9-trione Monooxalate]",–,0.24 µM,0.055 µM,–,–,–
